Each block holds one molecule with its values, some of them ahead of it.
Columns and labels:
Test in all cases: MIC by microbroth dilution
Format in all cases: cell-based
[1] = tested on: Streptococcus pyogenes L49; settings: 0.01% (w/v) BSA, 10^4 CFU/ml, read after 18-24 h, 37° C., Todd Hewitt broth
Method: (§1) The minimal inhibitory concentration (MIC) has been determined by microbroth dilution methodology, in the presence of 0.01% (w/v) of bovine serum albumin (BSA). BSA is added to the diluent to avoid possible adherence of the compounds of the invention to the plastic surface of the microtiter wells, as disclosed also by B. Goldstein et al., Antimicrobial Agents and Chemotherapy, 37 (1993), 741-745.
(§2) Inocula were 10^4 CFU/ml, except for Propionibacterium acnes and Bacteroides fragilis (10^5 CFU/ml).
(§3) MICs were read after 18-24 h, except for Haemophilus influenzae, P. acnes, B. fragilis (48 h).
(§4) All microorganisms were incubated at 37° C.; H. influenzae in a 5% CO2 atmosphere, anaerobes in a N2 --CO2 --H2 (80:10:10) mixture; other organisms in air.
(§5) The growth media are: Oxoid Iso-Sensitest broth for staphylococci and Enterococcus faecalis); Difco Todd Hewitt broth for streptococci; Difco brain heart infusion broth+1% Difco Supplement C for H. influenzae; Difco Wilkins-Chalgren broth for anaerobes.

Strept. agalactiae L310 = settings: 0.01% (w/v) BSA, 10^4 CFU/ml, read after 18-24 h, 37° C., Todd Hewitt broth
Method: as §1, §2, §3, §4, §5

Strept. sanguis L1721 = settings: 0.01% (w/v) BSA, 10^4 CFU/ml, read after 18-24 h, 37° C., Todd Hewitt broth
Method: as §1, §2, §3, §4, §5

[2] = tested on: Staphylococcus aureus L165; settings: 0.01% (w/v) BSA, 10^4 CFU/ml, read after 18-24 h, 37° C., Iso-Sensitest broth
Method: as §1, §2, §3, §4, §5

Strept. pneumoniae L44 = settings: 0.01% (w/v) BSA, 10^4 CFU/ml, read after 18-24 h, 37° C., Todd Hewitt broth
Method: BSA is added to the diluent to avoid possible adherence of the compounds of the invention to the plastic surface of the microtiter wells, as disclosed also by B. Goldstein et al., Antimicrobial Agents and Chemotherapy, 37 (1993), 741-745. Inocula were 10^4 CFU/ml, except for Propionibacterium acnes and Bacteroides fragilis (10^5 CFU/ml). MICs were read after 18-24 h, except for Haemophilus influenzae, P. acnes, B. fragilis (48 h). All microorganisms were incubated at 37° C.; H. influenzae in a 5% CO2 atmosphere, anaerobes in a N2 --CO2 --H2 (80:10:10) mixture; other organisms in air. The growth media are: Oxoid Iso-Sensitest broth for staphylococci and Enterococcus faecalis); Difco Todd Hewitt broth for streptococci; Difco brain heart infusion broth+1% Difco Supplement C for H. influenzae; Difco Wilkins-Chalgren broth for anaerobes.

MIC of the compounds, Streptococcus pyogenes L49 [1]: 0.5 µg/mL
MIC of the compounds, Strept. agalactiae L310 (Strept. agalactiae L310): 16 µg/mL
MIC of the compounds, Strept. sanguis L1721 (Strept. sanguis L1721): 2 µg/mL
MIC of the compounds, Staphylococcus aureus L165 [2]: 0.06 µg/mL
MIC of the compounds, Strept. pneumoniae L44 (Strept. pneumoniae L44): 0.25 µg/mL
SMILES: CNC(=O)CC1NC(=O)c2csc(n2)-c2ccc(-c3nc(C4=NC(C(=O)N5CCCC5C(=O)N5CCN(CCN6CCOCC6)CC5)CO4)cs3)nc2-c2csc(n2)-c2csc(n2)C(C(O)c2ccccc2)NC(=O)CNC(=O)c2nc(sc2COC)C(C(C)C)NC(=O)c2nc1sc2C (mixture of isomers) [Compound 19]

MIC of the compounds, Streptococcus pyogenes L49 [1]: 4 µg/mL
MIC of the compounds, Strept. agalactiae L310 (Strept. agalactiae L310): 8 µg/mL
MIC of the compounds, Strept. sanguis L1721 (Strept. sanguis L1721): 0.5 µg/mL
MIC of the compounds, Staphylococcus aureus L165 [2]: 0.06 µg/mL
MIC of the compounds, Strept. pneumoniae L44 (Strept. pneumoniae L44): 0.5 µg/mL
SMILES: CNC(=O)CC1NC(=O)c2csc(n2)-c2ccc(-c3nc(C4=NC(C(=O)N5CCCC5C(=O)N(C)CCN5CCN(C)CC5)CO4)cs3)nc2-c2csc(n2)-c2csc(n2)C(C(O)c2ccccc2)NC(=O)CNC(=O)c2nc(sc2COC)C(C(C)C)NC(=O)c2nc1sc2C (mixture of isomers) [Compound 17]

MIC of the compounds, Streptococcus pyogenes L49 [1]: 2 µg/mL
MIC of the compounds, Strept. agalactiae L310 (Strept. agalactiae L310): 4 µg/mL
MIC of the compounds, Strept. sanguis L1721 (Strept. sanguis L1721): 0.25 µg/mL
MIC of the compounds, Staphylococcus aureus L165 [2]: 0.13 µg/mL
MIC of the compounds, Strept. pneumoniae L44 (Strept. pneumoniae L44): 0.13 µg/mL
SMILES: CNC(=O)CC1NC(=O)c2csc(n2)-c2ccc(-c3nc(C4=NC(C(=O)N5CCCC5C(=O)NC(C)C(=O)N(C)CCN(C)C)CO4)cs3)nc2-c2csc(n2)-c2csc(n2)C(C(O)c2ccccc2)NC(=O)CNC(=O)c2nc(sc2COC)C(C(C)C)NC(=O)c2nc1sc2C (mixture of isomers) [Compound 14]

MIC of the compounds, Streptococcus pyogenes L49 [1]: 4 µg/mL
MIC of the compounds, Strept. agalactiae L310 (Strept. agalactiae L310): 8 µg/mL
MIC of the compounds, Strept. sanguis L1721 (Strept. sanguis L1721): 1 µg/mL
MIC of the compounds, Staphylococcus aureus L165 [2]: 0.13 µg/mL
MIC of the compounds, Strept. pneumoniae L44 (Strept. pneumoniae L44): 0.5 µg/mL
SMILES: CNC(=O)CC1NC(=O)c2csc(n2)-c2ccc(-c3nc(C4=NC(C(=O)N5CCCC5C(=O)N5CCN(CCCN(C)C)CC5)CO4)cs3)nc2-c2csc(n2)-c2csc(n2)C(C(O)c2ccccc2)NC(=O)CNC(=O)c2nc(sc2COC)C(C(C)C)NC(=O)c2nc1sc2C (mixture of isomers) [Compound 16]

MIC of the compounds, Streptococcus pyogenes L49 [1]: 8 µg/mL
MIC of the compounds, Strept. agalactiae L310 (Strept. agalactiae L310): 16 µg/mL
MIC of the compounds, Strept. sanguis L1721 (Strept. sanguis L1721): 2 µg/mL
MIC of the compounds, Staphylococcus aureus L165 [2]: 0.06 µg/mL
MIC of the compounds, Strept. pneumoniae L44 (Strept. pneumoniae L44): 1 µg/mL
SMILES: CNC(=O)CC1NC(=O)c2csc(n2)-c2ccc(-c3nc(C4=NC(C(=O)N5CCCC5C(=O)N(C)CCN(C)CCN(C)C)CO4)cs3)nc2-c2csc(n2)-c2csc(n2)C(C(O)c2ccccc2)NC(=O)CNC(=O)c2nc(sc2COC)C(C(C)C)NC(=O)c2nc1sc2C (mixture of isomers) [Compound 15]

MIC of the compounds, Streptococcus pyogenes L49 [1]: 8 µg/mL
MIC of the compounds, Strept. agalactiae L310 (Strept. agalactiae L310): 8 µg/mL
MIC of the compounds, Strept. sanguis L1721 (Strept. sanguis L1721): 2 µg/mL
MIC of the compounds, Staphylococcus aureus L165 [2]: 0.06 µg/mL
MIC of the compounds, Strept. pneumoniae L44 (Strept. pneumoniae L44): 0.5 µg/mL
SMILES: CNC(=O)CC1NC(=O)c2csc(n2)-c2ccc(-c3nc(C4=NC(C(=O)N5CCCC5C(=O)N(C)CCN5CCN(CCO)CC5)CO4)cs3)nc2-c2csc(n2)-c2csc(n2)C(C(O)c2ccccc2)NC(=O)CNC(=O)c2nc(sc2COC)C(C(C)C)NC(=O)c2nc1sc2C (mixture of isomers) [Compound 18]

MIC of the compounds, Streptococcus pyogenes L49 [1]: 4 µg/mL
MIC of the compounds, Strept. agalactiae L310 (Strept. agalactiae L310): 8 µg/mL
MIC of the compounds, Strept. sanguis L1721 (Strept. sanguis L1721): 1 µg/mL
MIC of the compounds, Staphylococcus aureus L165 [2]: 0.13 µg/mL
MIC of the compounds, Strept. pneumoniae L44 (Strept. pneumoniae L44): 0.5 µg/mL
SMILES: CNC(=O)CC1NC(=O)c2csc(n2)-c2ccc(-c3nc(C4=NC(C(=O)N5CCCC5C(=O)N5CCCC5CN(C)CCN(C)C)CO4)cs3)nc2-c2csc(n2)-c2csc(n2)C(C(O)c2ccccc2)NC(=O)CNC(=O)c2nc(sc2COC)C(C(C)C)NC(=O)c2nc1sc2C (mixture of isomers) [Compound 20]

The remaining lines, values behind:

SMILES: CNC(=O)CC1NC(=O)c2csc(n2)-c2ccc(-c3nc(C4=NC(C(=O)N5CCCC5C(=O)NCCN(C(C)C)C(C)C)CO4)cs3)nc2-c2csc(n2)-c2csc(n2)C(C(O)c2ccccc2)NC(=O)CNC(=O)c2nc(sc2COC)C(C(C)C)NC(=O)c2nc1sc2C (mixture of isomers) [Compound 11]
MIC of the compounds, Streptococcus pyogenes L49 [1]: 4 µg/mL
MIC of the compounds, Strept. agalactiae L310 (Strept. agalactiae L310): 4 µg/mL
MIC of the compounds, Strept. sanguis L1721 (Strept. sanguis L1721): 0.5 µg/mL
MIC of the compounds, Staphylococcus aureus L165 [2]: 0.06 µg/mL
MIC of the compounds, Strept. pneumoniae L44 (Strept. pneumoniae L44): 0.25 µg/mL

SMILES: CNC(=O)CC1NC(=O)c2csc(n2)-c2ccc(-c3nc(C4=NC(C(=O)N5CCCC5C(=O)N(C)CC(=O)N(C)CCN(C)C)CO4)cs3)nc2-c2csc(n2)-c2csc(n2)C(C(O)c2ccccc2)NC(=O)CNC(=O)c2nc(sc2COC)C(C(C)C)NC(=O)c2nc1sc2C (mixture of isomers) [Compound 13]
MIC of the compounds, Streptococcus pyogenes L49 [1]: 4 µg/mL
MIC of the compounds, Strept. agalactiae L310 (Strept. agalactiae L310): 8 µg/mL
MIC of the compounds, Strept. sanguis L1721 (Strept. sanguis L1721): 1 µg/mL
MIC of the compounds, Staphylococcus aureus L165 [2]: 0.13 µg/mL
MIC of the compounds, Strept. pneumoniae L44 (Strept. pneumoniae L44): 0.5 µg/mL

SMILES: CNC(=O)CC1NC(=O)c2csc(n2)-c2ccc(-c3nc(C4=NC(C(=O)N5CCCC5C(=O)NCCN(C)C)CO4)cs3)nc2-c2csc(n2)-c2csc(n2)C(C(O)c2ccccc2)NC(=O)CNC(=O)c2nc(sc2COC)C(C(C)C)NC(=O)c2nc1sc2C (mixture of isomers) [Compound 7]
MIC of the compounds, Streptococcus pyogenes L49 [1]: 1 µg/mL
MIC of the compounds, Strept. agalactiae L310 (Strept. agalactiae L310): 4 µg/mL
MIC of the compounds, Strept. sanguis L1721 (Strept. sanguis L1721): 0.5 µg/mL
MIC of the compounds, Staphylococcus aureus L165 [2]: 0.06 µg/mL
MIC of the compounds, Strept. pneumoniae L44 (Strept. pneumoniae L44): 0.13 µg/mL

SMILES: CCN(CC)CCN(CC)C(=O)C1CCCN1C(=O)C1COC(c2csc(-c3ccc4c(n3)-c3csc(n3)-c3csc(n3)C(C(O)c3ccccc3)NC(=O)CNC(=O)c3nc(sc3COC)C(C(C)C)NC(=O)c3nc(sc3C)C(CC(=O)NC)NC(=O)c3csc-4n3)n2)=N1 (mixture of isomers) [Compound 9]
MIC of the compounds, Streptococcus pyogenes L49 [1]: 8 µg/mL
MIC of the compounds, Strept. agalactiae L310 (Strept. agalactiae L310): 8 µg/mL
MIC of the compounds, Strept. sanguis L1721 (Strept. sanguis L1721): 2 µg/mL
MIC of the compounds, Staphylococcus aureus L165 [2]: 0.06 µg/mL
MIC of the compounds, Strept. pneumoniae L44 (Strept. pneumoniae L44): 0.5 µg/mL

SMILES: CCN(CCN(C)C)C(=O)C1CCCN1C(=O)C1COC(c2csc(-c3ccc4c(n3)-c3csc(n3)-c3csc(n3)C(C(O)c3ccccc3)NC(=O)CNC(=O)c3nc(sc3COC)C(C(C)C)NC(=O)c3nc(sc3C)C(CC(=O)NC)NC(=O)c3csc-4n3)n2)=N1 (mixture of isomers) [Compound 8]
MIC of the compounds, Streptococcus pyogenes L49 [1]: 4 µg/mL
MIC of the compounds, Strept. agalactiae L310 (Strept. agalactiae L310): 8 µg/mL
MIC of the compounds, Strept. sanguis L1721 (Strept. sanguis L1721): 0.5 µg/mL
MIC of the compounds, Staphylococcus aureus L165 [2]: 0.06 µg/mL
MIC of the compounds, Strept. pneumoniae L44 (Strept. pneumoniae L44): 0.25 µg/mL

SMILES: CNC(=O)CC1NC(=O)c2csc(n2)-c2ccc(-c3nc(C4=NC(C(=O)N5CCCC5C(=O)NCCCN(C)C)CO4)cs3)nc2-c2csc(n2)-c2csc(n2)C(C(O)c2ccccc2)NC(=O)CNC(=O)c2nc(sc2COC)C(C(C)C)NC(=O)c2nc1sc2C (mixture of isomers) [Compound 4]
MIC of the compounds, Streptococcus pyogenes L49 [1]: 4 µg/mL
MIC of the compounds, Strept. agalactiae L310 (Strept. agalactiae L310): 4 µg/mL
MIC of the compounds, Strept. sanguis L1721 (Strept. sanguis L1721): 0.5 µg/mL
MIC of the compounds, Staphylococcus aureus L165 [2]: 0.06 µg/mL
MIC of the compounds, Strept. pneumoniae L44 (Strept. pneumoniae L44): 0.25 µg/mL

— patent publication US6143739A, “Basic proline-amide derivatives of GE 2270 and GE 2270-like antibiotics” (Biosearch Italia S.p.A., priority 1995, dated 2000)
